≈ marks a conversion by molar mass, not a printed value. Read-outs that look alike come from different tables or passages of the source.
What was measured:
[1] = system: human embryonic fibroblasts (HEFs); experiment: MTT cytotoxicity on human embryonic fibroblasts; format: cell-based; conditions: Homo sapiens, Fibroblast, 24 h, ND = non-toxic in tested concentrations (up to 50 mg/L)
Description: (§1) The primary screening of 22 substances was performed on human embryonic fibroblasts (HEFs). […] The HepG2 cell line was obtained from the American Type Culture Collection (ATCC cat. # HB-8065). The primary HEF cells (normal human embryonic fibroblasts) were derived from human embryonic stem cells. The cells were cultured in DMEM/F12 (1:1) medium containing 10% fetal bovine serum (Invitrogen, Carlsbad, CA, USA) at 37 °C and 5% CO2, according to standard mammalian tissue culture protocols and sterile technique. […] The incubation time with the substance was 24 h for all substances and cell lines. Cell detachment by trypsin, centrifugation, and counting in a hemocytometer were performed 16 h before the addition of the substance. For correct counting of the HepG2 cells, the cell suspension was passed through a syringe needle to get rid of cell aggregates. The cells were placed in the wells of a 96-well plate. The number of cells was selected according to the properties of the cell line and the final optical density in the experiment. Fibroblasts and hepatocytes were used in the amount of 10 thousand cells per well in 100 μL of DMEM/F12 medium supplemented with 10% fetal bovine serum. The substances were added to 100 µL of medium in the wells so that the final concentrations were 50, 25, 12.5, 6.25, 3.125, and 1.62 mg/L. The final well volume was 200 µL. The medium containing fetal bovine serum, without added substances, was used as a negative control. After 24 h, excessive amounts of medium were discarded. A total of 30 µL of MTT solution (5 mg/mL in PBS) was added to each well. After the precipitation of formazan crystals (3 h incubation), they were dissolved using 100 μL of dimethyl sulfoxide. The optical density (OD) was measured at 570 nm using a microplate reader (Eppendorf). For every condition, the cell viabilities were assessed in at least three independent experiments for every cell culture. Cell survival was calculated using the following formula:(OD of treated cells − OD blank)/(OD of control cells − OD blank) × 100%, where OD blank represents the OD values in wells without cells but with the addition of the MTT and DMSO solutions. The results were presented in the form of cytotoxicity curves, and the graphs were also plotted in a Microsoft Excel program; the calculation of the IC50 half-maximal inhibition concentration values was performed in a GraphPad Prism 6.0 (GraphPad Software Inc., San Diego, CA, USA) program, based on the equations of the cytotoxicity curves.

[2] = Solubility in water by HPLC; format: physicochemical; conditions: water, kinetic from dmso stock
How it was run: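 Compound (1.0 mg in 10 μL DMSO) mixed with 1.0 mL water, shaken 5 min and centrifuged; supernatant analysed by C18 HPLC. Water concentration derived from peak area relative to an acetonitrile standard at 1.0 mg/mL.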

MRSA = experiment: Selectivity index (average IC50 on eukaryotic cells / average MIC on MRSA); format: cell-based, Staphylococcus aureus; conditions: average IC50 on eukaryotic cells divided by average MIC on MRSA
Description: The selectivity index was calculated for each compound as the average IC50 on eukaryotic cells divided by the average MIC on MRSA (Table 2).

[3] = system: HepG2 human liver carcinoma cells; experiment: MTT cytotoxicity (hepatotoxicity) on HepG2; format: cell-based; conditions: Homo sapiens, HepG2, 24 h
Description: as §1

MRSA clinical isolates = experiment: MIC by broth microdilution against multidrug-resistant MRSA clinical isolates; format: cell-based, Staphylococcus aureus; conditions: for MIC: Staphylococcus aureus, MRSA, read-out: MIC
How it was run: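 Multidrug-resistant clinical MRSA isolates, 1 × 10^6 CFU/mL suspension in Mueller Hinton broth, broth microdilution with compounds at final 1, 0.5, 0.25 and 0.125 mg/L. Incubated 18 h at 37 °C; MIC taken as lowest concentration with no visible growth, triplicate.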

- solubility at 5 min ([2]; read-out: Solubility in water, mass concentration): 90.5 µg/mL
- solubility at 5 min ([2]; read-out: Solubility in water, molar concentration): 280 µM
- MIC Range Against 8 MRSA Strains (MRSA clinical isolates; 8 multidrug-resistant MRSA clinical isolates, tested 0.125-1 mg/L): 1 µg/mL (≈ 3.17 µM)
- MIC (MRSA clinical isolates; Table S4, MRSA strain 1): 0.5 µg/mL (≈ 1.59 µM)
- MIC (MRSA clinical isolates; Table S4, MRSA strain 2): 1 µg/mL (≈ 3.17 µM)
- MIC (MRSA clinical isolates; Table S4, MRSA strain 3): 1 µg/mL (≈ 3.17 µM)
- MIC (MRSA clinical isolates; Table S4, MRSA strain 4): 1 µg/mL (≈ 3.17 µM)
- MIC (MRSA clinical isolates; Table S4, MRSA strain 5): 0.5 µg/mL (≈ 1.59 µM)
- MIC (MRSA clinical isolates; Table S4, MRSA strain 6): 0.5 µg/mL (≈ 1.59 µM)
- MIC (MRSA clinical isolates; Table S4, MRSA strain 7): 1 µg/mL (≈ 3.17 µM)
- MIC (MRSA clinical isolates; Table S4, MRSA strain 8): 1 µg/mL (≈ 3.17 µM)
- MIC (MRSA clinical isolates; Table S4, MRSA strain 9): 1 µg/mL (≈ 3.17 µM)
- MIC (MRSA clinical isolates; Table S4, MRSA strain 10): 1 µg/mL (≈ 3.17 µM)
- MIC (MRSA clinical isolates; Table S4, MRSA strain 12): 1 µg/mL (≈ 3.17 µM)
- MIC (MRSA clinical isolates; Table S4, MRSA strain 13): 1 µg/mL (≈ 3.17 µM)
- MIC (MRSA clinical isolates; Table S4, MRSA strain 14): 1 µg/mL (≈ 3.17 µM)
- MIC (MRSA clinical isolates; Table S4, MRSA strain 15): 1 µg/mL (≈ 3.17 µM)
- MIC (MRSA clinical isolates; Table S4, MRSA strain 16): 0.5 µg/mL (≈ 1.59 µM)
- MIC (MRSA clinical isolates; Table S4, MRSA strain 17): 1 µg/mL (≈ 3.17 µM)
- MIC (MRSA clinical isolates; Table S4, MRSA strain 18): 1 µg/mL (≈ 3.17 µM)
- MIC (MRSA clinical isolates; Table S4, MRSA strain 21): 1 µg/mL (≈ 3.17 µM)
- MIC (MRSA clinical isolates; Table S4, MRSA strain 23): 1 µg/mL (≈ 3.17 µM)
- MIC (MRSA clinical isolates; Table S4, MRSA strain 24): 1 µg/mL (≈ 3.17 µM)
- MIC (MRSA clinical isolates; Table S4, MRSA strain 25): 1 µg/mL (≈ 3.17 µM)
- MIC (MRSA clinical isolates; Table S4, MRSA strain 26): 0.5 µg/mL (≈ 1.59 µM)
- MIC (MRSA clinical isolates; Table S4, MRSA strain 27): 1 µg/mL (≈ 3.17 µM)
- MIC (MRSA clinical isolates; Table S4, MRSA strain 28): 1 µg/mL (≈ 3.17 µM)
- MIC (MRSA clinical isolates; Table S4, MRSA strain 29): 1 µg/mL (≈ 3.17 µM)
- MIC (MRSA clinical isolates; Table S4, MRSA strain 30): 1 µg/mL (≈ 3.17 µM)
- MIC (MRSA clinical isolates; Table S4, MRSA strain 31): 1 µg/mL (≈ 3.17 µM)
- MIC (MRSA clinical isolates; Table S4, MRSA strain 34): 1 µg/mL (≈ 3.17 µM)
- MIC (MRSA clinical isolates; Table S4, MRSA strain 35): 1 µg/mL (≈ 3.17 µM)
- MIC (MRSA clinical isolates; Table S4, MRSA strain 36): 1 µg/mL (≈ 3.17 µM)
- MIC (MRSA clinical isolates; Table S4, MRSA strain 40): 1 µg/mL (≈ 3.17 µM)
- MIC (MRSA clinical isolates; Table S4, MRSA strain 41): 1 µg/mL (≈ 3.17 µM)
- MIC (MRSA clinical isolates; Table S4, MRSA strain 42): 1 µg/mL (≈ 3.17 µM)
- MIC (MRSA clinical isolates; Table S4, MRSA strain 43): 1 µg/mL (≈ 3.17 µM)
- MIC (MRSA clinical isolates; Table S4, MRSA strain 44): 1 µg/mL (≈ 3.17 µM)
- MIC (MRSA clinical isolates; Table S4, MRSA strain 45): 1 µg/mL (≈ 3.17 µM)
- MIC (MRSA clinical isolates; Table S4, MRSA strain 46): 1 µg/mL (≈ 3.17 µM)
- MIC (MRSA clinical isolates; Table S4, MRSA strain 48): 1 µg/mL (≈ 3.17 µM)
- MIC (MRSA clinical isolates; Table S4, MRSA strain 49): 1 µg/mL (≈ 3.17 µM)
- MIC (MRSA clinical isolates; Table S4, MRSA strain 50): 1 µg/mL (≈ 3.17 µM)
- MIC (MRSA clinical isolates; Table S4, MRSA strain 51): 1 µg/mL (≈ 3.17 µM)
SMILES: CCOC(=O)c1[nH]c2ccccc2c1/N=N/N1CCN(C)CC1 [BX-SI001, Ethyl (E)-3-((4-methylpiperazin-1-yl)diazenyl)-1H-indole-2-carboxylate]
- IC50 [1]: 19 µg/mL (≈ 60.2 µM)
- Selectivity Index (MRSA): 19
- IC50 [3]: 22 µg/mL (≈ 69.8 µM)

— paper PMC11899342, “Novel Triazeneindole Antibiotics: Synthesis and Hit-to-Lead Optimization” (International Journal of Molecular Sciences, 2025)
